{"source": "ChEMBL document CHEMBL2203257", "about": "(Bioorg Med Chem Lett, 2012)", "key": {"[1]": {"target": "Calcium/calmodulin-dependent protein kinase kinase 2 (Homo sapiens, UniProt Q96RR4)", "sequence (Q96RR4 whole entry)": "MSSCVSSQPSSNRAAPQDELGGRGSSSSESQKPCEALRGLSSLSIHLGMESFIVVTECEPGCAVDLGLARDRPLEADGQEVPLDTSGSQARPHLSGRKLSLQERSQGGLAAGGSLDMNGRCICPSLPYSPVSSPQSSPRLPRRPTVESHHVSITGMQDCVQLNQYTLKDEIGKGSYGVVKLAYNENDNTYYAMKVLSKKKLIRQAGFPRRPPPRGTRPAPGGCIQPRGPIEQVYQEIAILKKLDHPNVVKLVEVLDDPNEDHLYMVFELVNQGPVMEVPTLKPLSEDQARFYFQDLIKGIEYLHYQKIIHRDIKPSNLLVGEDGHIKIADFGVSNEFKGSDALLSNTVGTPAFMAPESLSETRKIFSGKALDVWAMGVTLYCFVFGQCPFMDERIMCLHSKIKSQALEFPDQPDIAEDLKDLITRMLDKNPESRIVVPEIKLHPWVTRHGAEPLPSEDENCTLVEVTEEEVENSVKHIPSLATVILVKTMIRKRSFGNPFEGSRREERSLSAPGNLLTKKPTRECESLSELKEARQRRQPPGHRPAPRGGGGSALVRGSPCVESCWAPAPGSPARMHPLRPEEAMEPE", "test": "Inhibition of CAMKK2; call rule not given here"}, "[2]": {"target": "Casein kinase II subunit alpha (Homo sapiens, UniProt P68400)", "test": "Inhibition of CSNK2A1"}, "Ephrin type-B receptor 6": {"target": "Ephrin type-B receptor 6 (Homo sapiens, UniProt O15197)", "sequence (O15197 whole entry)": "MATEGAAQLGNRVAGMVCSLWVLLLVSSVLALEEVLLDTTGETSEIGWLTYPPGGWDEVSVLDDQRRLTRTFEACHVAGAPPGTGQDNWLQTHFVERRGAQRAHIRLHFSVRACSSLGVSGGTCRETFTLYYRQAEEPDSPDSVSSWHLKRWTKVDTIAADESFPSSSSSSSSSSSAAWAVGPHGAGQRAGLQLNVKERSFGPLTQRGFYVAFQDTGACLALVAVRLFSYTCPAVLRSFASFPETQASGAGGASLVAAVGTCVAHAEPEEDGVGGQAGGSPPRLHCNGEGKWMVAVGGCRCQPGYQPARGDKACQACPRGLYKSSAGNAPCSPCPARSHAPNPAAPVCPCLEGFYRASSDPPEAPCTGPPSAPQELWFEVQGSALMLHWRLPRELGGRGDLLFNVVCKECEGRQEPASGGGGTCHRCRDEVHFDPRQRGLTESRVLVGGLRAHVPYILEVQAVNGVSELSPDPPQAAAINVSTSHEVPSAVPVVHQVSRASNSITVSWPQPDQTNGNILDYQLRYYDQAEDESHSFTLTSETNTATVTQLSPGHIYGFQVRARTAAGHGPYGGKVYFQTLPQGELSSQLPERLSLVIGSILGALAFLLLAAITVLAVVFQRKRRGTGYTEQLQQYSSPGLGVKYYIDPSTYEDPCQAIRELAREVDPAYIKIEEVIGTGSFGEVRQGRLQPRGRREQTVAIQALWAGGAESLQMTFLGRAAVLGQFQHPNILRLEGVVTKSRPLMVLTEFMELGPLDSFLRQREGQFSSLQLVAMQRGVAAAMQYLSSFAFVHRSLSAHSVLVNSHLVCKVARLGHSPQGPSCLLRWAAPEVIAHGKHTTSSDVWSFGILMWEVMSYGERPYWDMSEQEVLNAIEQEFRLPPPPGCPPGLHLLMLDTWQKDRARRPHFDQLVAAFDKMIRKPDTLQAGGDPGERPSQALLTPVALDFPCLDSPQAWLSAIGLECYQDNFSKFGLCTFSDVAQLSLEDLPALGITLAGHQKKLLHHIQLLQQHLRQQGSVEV", "test": "Inhibition of EPHB6"}, "[3]": {"target": "Tyrosine-protein kinase ITK/TSK (Homo sapiens, UniProt Q08881)", "sequence (Q08881 whole entry)": "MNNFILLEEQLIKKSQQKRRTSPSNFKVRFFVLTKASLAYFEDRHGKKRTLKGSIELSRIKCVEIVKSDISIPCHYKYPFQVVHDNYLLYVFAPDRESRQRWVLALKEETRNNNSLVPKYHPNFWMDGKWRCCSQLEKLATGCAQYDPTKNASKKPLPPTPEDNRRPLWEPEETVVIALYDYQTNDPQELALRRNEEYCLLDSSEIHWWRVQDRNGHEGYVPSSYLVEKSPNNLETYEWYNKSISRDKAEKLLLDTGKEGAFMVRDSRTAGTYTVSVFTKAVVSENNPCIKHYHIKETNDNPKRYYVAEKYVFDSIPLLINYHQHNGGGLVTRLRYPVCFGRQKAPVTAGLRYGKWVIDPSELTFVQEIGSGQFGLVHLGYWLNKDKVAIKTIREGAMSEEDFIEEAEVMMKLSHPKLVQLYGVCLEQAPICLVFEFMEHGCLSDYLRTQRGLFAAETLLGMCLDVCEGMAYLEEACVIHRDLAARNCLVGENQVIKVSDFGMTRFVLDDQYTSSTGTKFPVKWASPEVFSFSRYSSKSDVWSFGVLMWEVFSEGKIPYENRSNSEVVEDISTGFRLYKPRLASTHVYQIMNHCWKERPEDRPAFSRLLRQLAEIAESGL", "test": "Inhibition of ITK"}, "[4]": {"target": "Tyrosine-protein kinase JAK2 (Homo sapiens, UniProt O60674)", "test": "Inhibition of JAK2"}, "LIM domain kinase 2": {"target": "LIM domain kinase 2 (Homo sapiens, UniProt P53671)", "test": "Inhibition of LIMK2"}, "[5]": {"target": "Tyrosine-protein kinase Lyn (Homo sapiens, UniProt P07948)", "test": "Inhibition of LYN"}, "[6]": {"target": "Mitogen-activated protein kinase kinase kinase 2 (Homo sapiens, UniProt Q9Y2U5)", "test": "Inhibition of MAP3K2"}, "[7]": {"target": "Mitogen-activated protein kinase kinase kinase kinase 1 (Homo sapiens, UniProt Q92918)", "test": "Inhibition of MAP4K1"}, "[8]": {"target": "Mitogen-activated protein kinase kinase kinase kinase 3 (Homo sapiens, UniProt Q8IVH8)", "test": "Inhibition of MAP4K3"}, "[9]": {"target": "Mitogen-activated protein kinase 1 (Homo sapiens, UniProt P28482)", "sequence (P28482 whole entry)": "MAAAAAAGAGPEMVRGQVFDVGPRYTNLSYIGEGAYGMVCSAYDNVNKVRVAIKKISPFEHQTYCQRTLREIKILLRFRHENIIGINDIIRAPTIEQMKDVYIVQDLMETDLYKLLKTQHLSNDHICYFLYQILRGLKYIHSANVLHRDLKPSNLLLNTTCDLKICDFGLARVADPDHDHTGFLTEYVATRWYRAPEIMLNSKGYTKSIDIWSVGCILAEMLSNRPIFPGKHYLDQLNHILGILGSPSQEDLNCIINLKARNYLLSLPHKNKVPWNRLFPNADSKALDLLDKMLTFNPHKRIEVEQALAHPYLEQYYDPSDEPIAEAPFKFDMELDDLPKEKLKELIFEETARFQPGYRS", "test": "Inhibition of MAPK1"}, "[10]": {"target": "Mitogen-activated protein kinase 8 (Homo sapiens, UniProt P45983)", "test": "Inhibition of MAPK8"}, "[11]": {"target": "Serine/threonine-protein kinase mTOR (Homo sapiens, UniProt P42345)", "test": "Inhibition of mTOR"}, "[12]": {"target": "Serine/threonine-protein kinase Nek2 (Homo sapiens, UniProt P51955)", "test": "Inhibition of NEK2"}, "[13]": {"target": "Serine/threonine-protein kinase PAK 4 (Homo sapiens, UniProt O96013)", "test": "Inhibition of PAK4"}, "[14]": {"target": "3-phosphoinositide-dependent protein kinase 1 (Homo sapiens, UniProt O15530)", "test": "Inhibition of PDPK1"}, "[15]": {"target": "Phosphatidylinositol 3-kinase catalytic subunit type 3 (Homo sapiens, UniProt Q8NEB9)", "test": "Inhibition of PIK3C3"}, "[16]": {"target": "T1, Phosphatidylinositol 4,5-bisphosphate 3-kinase catalytic subunit delta isoform (Homo sapiens, UniProt O00329)", "T1 sequence (O00329 whole entry)": "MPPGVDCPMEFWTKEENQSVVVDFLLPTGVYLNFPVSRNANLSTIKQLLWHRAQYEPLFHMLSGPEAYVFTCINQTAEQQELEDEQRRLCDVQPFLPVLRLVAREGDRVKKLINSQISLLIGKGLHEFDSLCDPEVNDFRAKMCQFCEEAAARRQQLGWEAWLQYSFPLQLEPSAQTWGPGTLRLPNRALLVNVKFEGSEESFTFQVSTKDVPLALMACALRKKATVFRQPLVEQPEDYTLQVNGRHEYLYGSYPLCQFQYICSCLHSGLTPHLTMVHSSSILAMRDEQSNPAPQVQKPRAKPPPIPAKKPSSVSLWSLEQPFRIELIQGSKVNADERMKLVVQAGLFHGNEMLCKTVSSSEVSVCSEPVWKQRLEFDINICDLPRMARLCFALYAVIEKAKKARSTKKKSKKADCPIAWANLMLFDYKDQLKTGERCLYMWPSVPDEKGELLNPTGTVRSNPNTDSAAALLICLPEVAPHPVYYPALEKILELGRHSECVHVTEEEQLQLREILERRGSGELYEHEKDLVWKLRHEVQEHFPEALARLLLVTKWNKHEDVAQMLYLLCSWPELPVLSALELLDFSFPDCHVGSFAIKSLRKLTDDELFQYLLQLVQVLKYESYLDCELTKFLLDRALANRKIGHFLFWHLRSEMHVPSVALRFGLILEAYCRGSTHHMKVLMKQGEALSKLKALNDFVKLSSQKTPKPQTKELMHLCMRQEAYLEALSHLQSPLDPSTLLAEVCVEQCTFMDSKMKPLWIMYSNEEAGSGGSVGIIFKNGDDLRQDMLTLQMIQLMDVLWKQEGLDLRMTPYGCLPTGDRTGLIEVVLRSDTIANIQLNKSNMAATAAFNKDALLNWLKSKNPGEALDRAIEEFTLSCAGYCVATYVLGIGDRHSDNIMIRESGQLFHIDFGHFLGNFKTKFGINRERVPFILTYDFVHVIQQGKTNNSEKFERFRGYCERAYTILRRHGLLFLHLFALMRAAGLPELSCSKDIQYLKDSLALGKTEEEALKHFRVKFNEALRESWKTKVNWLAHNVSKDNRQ", "test": "Inhibition of PIK3Cd"}, "[17]": {"target": "Serine/threonine-protein kinase N1 (Homo sapiens, UniProt Q16512)", "test": "Inhibition of PKN1"}, "[18]": {"target": "5'-AMP-activated protein kinase catalytic subunit alpha-2 (Homo sapiens, UniProt P54646)", "sequence (P54646 whole entry)": "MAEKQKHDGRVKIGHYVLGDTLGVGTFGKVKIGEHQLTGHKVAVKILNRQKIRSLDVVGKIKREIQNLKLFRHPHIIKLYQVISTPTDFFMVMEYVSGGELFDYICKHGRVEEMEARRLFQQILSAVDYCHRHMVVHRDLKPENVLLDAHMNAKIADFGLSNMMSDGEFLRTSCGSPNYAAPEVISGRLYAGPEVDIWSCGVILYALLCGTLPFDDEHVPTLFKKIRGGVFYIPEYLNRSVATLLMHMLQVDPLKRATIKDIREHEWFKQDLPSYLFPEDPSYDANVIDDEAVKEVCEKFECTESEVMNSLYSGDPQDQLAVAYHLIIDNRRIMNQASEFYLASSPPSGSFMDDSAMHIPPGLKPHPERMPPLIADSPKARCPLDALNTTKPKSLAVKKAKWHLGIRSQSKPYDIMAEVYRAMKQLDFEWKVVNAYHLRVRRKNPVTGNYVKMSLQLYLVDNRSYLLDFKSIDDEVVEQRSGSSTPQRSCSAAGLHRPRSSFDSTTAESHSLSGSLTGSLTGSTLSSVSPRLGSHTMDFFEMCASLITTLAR", "test": "Inhibition of PRKAA2"}, "[19]": {"target": "Protein kinase C theta type (Homo sapiens, UniProt Q04759)", "test": "Inhibition of PRKCQ"}, "[20]": {"target": "Protein-tyrosine kinase 6 (Homo sapiens, UniProt Q13882)", "test": "Inhibition of PTK6"}, "[21]": {"target": "Receptor-interacting serine/threonine-protein kinase 3 (Homo sapiens, UniProt Q9Y572)", "test": "Inhibition of RIPK3"}, "[22]": {"target": "Proto-oncogene tyrosine-protein kinase Src (Homo sapiens, UniProt P12931)", "test": "Inhibition of SRC"}, "[23]": {"target": "Serine/threonine-protein kinase 3 (Homo sapiens, UniProt Q13188)", "test": "Inhibition of STK3"}, "[24]": {"target": "Tyrosine-protein kinase SYK (Homo sapiens, UniProt P43405)", "test": "Inhibition of SYK"}, "[25]": {"target": "Serine/threonine-protein kinase TAO2 (Homo sapiens, UniProt Q9UL54)", "sequence (Q9UL54 whole entry)": "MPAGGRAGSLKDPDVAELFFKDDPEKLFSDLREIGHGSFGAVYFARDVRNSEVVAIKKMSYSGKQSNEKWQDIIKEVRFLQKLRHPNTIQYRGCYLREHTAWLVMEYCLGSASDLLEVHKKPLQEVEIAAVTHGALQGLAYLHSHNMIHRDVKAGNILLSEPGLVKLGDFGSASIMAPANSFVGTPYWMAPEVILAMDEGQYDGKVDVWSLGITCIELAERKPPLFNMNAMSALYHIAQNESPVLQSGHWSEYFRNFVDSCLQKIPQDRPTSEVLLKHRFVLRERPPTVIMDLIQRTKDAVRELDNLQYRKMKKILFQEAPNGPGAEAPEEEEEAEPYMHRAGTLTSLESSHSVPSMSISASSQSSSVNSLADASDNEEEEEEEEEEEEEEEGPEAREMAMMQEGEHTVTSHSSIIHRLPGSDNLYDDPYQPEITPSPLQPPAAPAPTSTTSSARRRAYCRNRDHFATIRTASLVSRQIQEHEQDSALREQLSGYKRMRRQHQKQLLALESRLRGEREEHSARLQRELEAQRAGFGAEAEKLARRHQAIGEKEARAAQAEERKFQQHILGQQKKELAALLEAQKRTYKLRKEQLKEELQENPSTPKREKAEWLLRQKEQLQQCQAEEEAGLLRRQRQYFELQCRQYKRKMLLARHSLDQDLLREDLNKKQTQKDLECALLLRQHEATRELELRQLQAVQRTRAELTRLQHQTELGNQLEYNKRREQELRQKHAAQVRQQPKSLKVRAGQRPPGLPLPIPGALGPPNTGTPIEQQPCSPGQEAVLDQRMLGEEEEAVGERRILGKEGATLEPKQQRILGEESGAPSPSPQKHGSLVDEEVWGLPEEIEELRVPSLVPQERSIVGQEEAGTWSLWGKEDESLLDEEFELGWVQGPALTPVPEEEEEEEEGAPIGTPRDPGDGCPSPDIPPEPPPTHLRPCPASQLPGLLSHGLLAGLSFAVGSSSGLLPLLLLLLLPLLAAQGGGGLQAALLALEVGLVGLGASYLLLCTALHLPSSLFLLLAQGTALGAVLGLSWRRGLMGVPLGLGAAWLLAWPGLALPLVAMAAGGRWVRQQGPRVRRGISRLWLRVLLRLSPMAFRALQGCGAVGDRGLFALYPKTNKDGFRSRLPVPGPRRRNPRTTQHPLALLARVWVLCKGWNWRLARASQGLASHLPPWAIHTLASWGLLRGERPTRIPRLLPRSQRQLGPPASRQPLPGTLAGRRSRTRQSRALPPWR", "test": "Inhibition of TAOK2"}, "[26]": {"target": "Tyrosine-protein kinase Tec (Homo sapiens, UniProt P42680)", "test": "Inhibition of TEC"}, "[27]": {"target": "Non-receptor tyrosine-protein kinase TNK1 (Homo sapiens, UniProt Q13470)", "sequence (Q13470 whole entry)": "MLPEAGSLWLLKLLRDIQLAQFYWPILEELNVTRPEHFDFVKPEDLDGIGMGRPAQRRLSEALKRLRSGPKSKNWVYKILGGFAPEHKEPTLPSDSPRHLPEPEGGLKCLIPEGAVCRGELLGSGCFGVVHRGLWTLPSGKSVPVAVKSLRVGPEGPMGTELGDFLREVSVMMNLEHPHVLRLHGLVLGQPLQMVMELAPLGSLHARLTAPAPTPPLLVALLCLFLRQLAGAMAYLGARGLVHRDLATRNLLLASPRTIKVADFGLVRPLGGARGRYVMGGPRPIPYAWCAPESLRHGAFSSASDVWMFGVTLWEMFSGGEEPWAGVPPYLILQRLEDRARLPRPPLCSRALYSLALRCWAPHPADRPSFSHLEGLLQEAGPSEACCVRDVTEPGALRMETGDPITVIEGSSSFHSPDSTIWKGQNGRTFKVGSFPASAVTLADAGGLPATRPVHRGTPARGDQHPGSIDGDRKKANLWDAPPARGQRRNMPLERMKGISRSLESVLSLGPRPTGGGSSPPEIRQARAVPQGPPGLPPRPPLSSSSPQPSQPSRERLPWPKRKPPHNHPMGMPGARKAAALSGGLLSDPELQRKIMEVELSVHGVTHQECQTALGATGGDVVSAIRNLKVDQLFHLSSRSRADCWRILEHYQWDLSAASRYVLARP", "test": "Inhibition of TNK1"}, "Cytochrome P450 2D6": {"target": "Cytochrome P450 2D6 (Homo sapiens, UniProt P10635)", "test": "Inhibition of CYP2D6 at >20 uM", "type": "ADME"}, "Cytochrome P450 3A4": {"target": "Cytochrome P450 3A4 (Homo sapiens, UniProt P08684)", "test": "Inhibition of CYP3A4 at >20 uM", "type": "ADME"}, "Mus musculus": {"test_system": "Mus musculus", "test": "Antiinflammatory activity in mouse air pouch model assessed as effect on IL-8-induced migration of granulocytes into air pouch at 10 mg/kg, po", "type": "functional"}, "Activin receptor type-2A": {"target": "Activin receptor type-2A (Homo sapiens, UniProt P27037)", "test": "Inhibition of ACVR2A"}, "Aurora kinase A": {"target": "Aurora kinase A (Homo sapiens, UniProt O14965)", "test": "Inhibition of AURKA"}, "[28]": {"target": "Bromodomain-containing protein 3 (Homo sapiens, UniProt Q15059)", "test": "Inhibition of BRD3"}, "[29]": {"target": "Bromodomain-containing protein 4 (Homo sapiens, UniProt O60885)", "test": "Inhibition of BRD4"}, "[30]": {"target": "Calcium/calmodulin-dependent protein kinase type II subunit delta (Homo sapiens, UniProt Q13557)", "test": "Inhibition of CAMK2D"}}, "data": [{"smiles": "CC(C)(C)NS(=O)(=O)c1cncc(-c2ccn3nc(N)nc3c2)c1", "values": [{"measurement": "IC50", "setting": "[1]", "value": "> 10", "unit": "µM"}, {"measurement": "IC50", "setting": "[2]", "value": "> 10", "unit": "µM"}, {"measurement": "IC50", "setting": "Ephrin type-B receptor 6", "value": "> 10", "unit": "µM"}, {"measurement": "IC50", "setting": "[3]", "value": "> 10", "unit": "µM"}, {"measurement": "IC50", "setting": "[4]", "value": "> 10", "unit": "µM"}, {"measurement": "IC50", "setting": "LIM domain kinase 2", "value": "> 10", "unit": "µM"}, {"measurement": "IC50", "setting": "[5]", "value": "> 10", "unit": "µM"}, {"measurement": "IC50", "setting": "[6]", "value": "> 10", "unit": "µM"}, {"measurement": "IC50", "setting": "[7]", "value": "> 10", "unit": "µM"}, {"measurement": "IC50", "setting": "[8]", "value": "> 10", "unit": "µM"}, {"measurement": "IC50", "setting": "[9]", "value": "> 10", "unit": "µM"}, {"measurement": "IC50", "setting": "[10]", "value": "> 10", "unit": "µM"}, {"measurement": "IC50", "setting": "[11]", "value": "> 10", "unit": "µM"}, {"measurement": "IC50", "setting": "[12]", "value": "> 10", "unit": "µM"}, {"measurement": "IC50", "setting": "[13]", "value": 9.33, "unit": "µM"}, {"measurement": "IC50", "setting": "[14]", "value": "> 10", "unit": "µM"}, {"measurement": "IC50", "setting": "[15]", "value": "> 5.89", "unit": "µM"}, {"measurement": "IC50", "setting": "[16]", "value": 0.708, "unit": "µM"}, {"measurement": "IC50", "setting": "[17]", "value": "> 10", "unit": "µM"}, {"measurement": "IC50", "setting": "[18]", "value": "> 10", "unit": "µM"}, {"measurement": "IC50", "setting": "[19]", "value": "> 10", "unit": "µM"}, {"measurement": "IC50", "setting": "[20]", "value": "> 10", "unit": "µM"}, {"measurement": "IC50", "setting": "[21]", "value": "> 10", "unit": "µM"}, {"measurement": "IC50", "setting": "[22]", "value": "> 10", "unit": "µM"}, {"measurement": "IC50", "setting": "[23]", "value": "> 10", "unit": "µM"}, {"measurement": "IC50", "setting": "[24]", "value": "> 10", "unit": "µM"}, {"measurement": "IC50", "setting": "[25]", "value": "> 10", "unit": "µM"}, {"measurement": "IC50", "setting": "[26]", "value": "> 10", "unit": "µM"}, {"measurement": "IC50", "setting": "[27]", "value": "> 10", "unit": "µM"}, {"measurement": "inhibition (INH)", "setting": "Cytochrome P450 2D6", "value": "Active"}, {"measurement": "inhibition (INH)", "setting": "Cytochrome P450 3A4", "value": "Active"}, {"measurement": "Activity", "setting": "Mus musculus", "value": 73, "unit": "%"}, {"measurement": "IC50", "setting": "Activin receptor type-2A", "value": "> 10", "unit": "µM"}, {"measurement": "IC50", "setting": "Aurora kinase A", "value": "> 10", "unit": "µM"}, {"measurement": "IC50", "setting": "[28]", "value": "> 10", "unit": "µM"}, {"measurement": "IC50", "setting": "[29]", "value": "> 10", "unit": "µM"}, {"measurement": "IC50", "setting": "[30]", "value": "> 10", "unit": "µM"}]}]}
